≈ marks a conversion by molar mass, not a printed value.
Legend:
[1] = tested on: Mycobacterium tuberculosis; experiment: Antimycobacterial activity against Mycobacterium tuberculosis; type: functional
[2] = tested on: Mycobacterium tuberculosis; experiment: Antitubercular activity against Mycobacterium tuberculosis H37Ra assessed as inhibition of bacterial growth incubated for 7 days by Microdilution Alamar Blue assay; type: functional; conditions: 168 h, time 7 day
[3] = tested on: Mycobacterium tuberculosis; experiment: Antimicrobial activity against Mycobacterium tuberculosis H37Rv ATCC 27294 assessed as inhibition of bacterial growth incubated for […] by broth dilution method; type: functional; conditions: time lower 18 hrs
[4] = tested on: Mycobacterium tuberculosis; experiment: Antibacterial activity against Mycobacterium tuberculosis H37Rv assessed as reduction in bacterial growth measured after 7 days by broth micro-dilution method; type: functional; conditions: 168 h, time 7 day
[5] = tested on: Mycobacterium tuberculosis; experiment: Antimycobacterial activity against Mycobacterium tuberculosis H37Rv assessed as reduction in bacterial cell growth by resazurin reduction method; type: functional
[6] = tested on: Mycobacterium tuberculosis; experiment: Antibacterial activity against Mycobacterium tuberculosis H37Rv assessed as bacterial growth inhibition by CLSI broth microdilution method; type: functional
Cytochrome P450 2C9 = Cytochrome P450 2C9 (Homo sapiens, UniProt P11712); experiment: Inhibition of CYP2C9 (unknown origin); type: ADME
[7] = tested on: Mycobacterium tuberculosis; experiment: Antibacterial activity against Mycobacterium tuberculosis ATCC 35801 assessed as inhibition of bacterial growth incubated for 7 days by resazurin microtiter assay; type: functional; conditions: ATCC 35801, 168 h, time 7 day
[8] = tested on: Mycobacterium tuberculosis; experiment: Antibacterial activity against Mycobacterium tuberculosis H37Rv; type: functional
[9] = tested on: Mycobacterium tuberculosis; experiment: Antimycobacterial activity against Mycobacterium tuberculosis H37Rv ATCC 27294 assessed as reduction in bacterial cell growth by resazurin reduction method; type: functional
[10] = tested on: Mycobacterium tuberculosis; experiment: Antimycobacterial activity against Mycobacterium tuberculosis assessed as bacterial growth inhibition; type: functional
Staphylococcus aureus = experiment: Antibacterial activity against Staphylococcus aureus assessed as reduction in microbial growth by CLSI protocol based broth micro-dilution method; type: functional
[11] = tested on: Mycobacterium tuberculosis; experiment: Antimycobacterial activity against Mycobacterium tuberculosis H37Rv ATCC 27294 assessed as reduction in bacterial cell growth; type: functional
[12] = tested on: Mycobacterium tuberculosis; experiment: Antimycobacterial activity against Mycobacterium tuberculosis […] assessed as reduction in bacterial growth; type: functional
[13] = tested on: Mycobacterium tuberculosis; experiment: Antibacterial activity against wild type Mycobacterium tuberculosis H37Rv infected in BALB/c mouse assessed as log reduction in colony forming units at 20 mg/kg; type: functional
[14] = tested on: Mycolicibacterium smegmatis; experiment: Antimicrobial activity against Mycobacterium smegmatis ATCC 700084 assessed as bacterial growth inhibition; type: functional
Mycobacterium avium = experiment: Antimycobacterial activity against Mycobacterium avium assessed as bacterial growth inhibtion; type: functional
[15] = tested on: Mycobacterium tuberculosis; experiment: Antimycobacterial activity against Mycobacterium tuberculosis assessed as reduction in bacterial growth; type: functional
[16] = tested on: Mycobacterium tuberculosis; experiment: Antimycobacterial activity against Mycobacterium tuberculosis H37Rv assessed as reduction in bacterial growth after 7 days by resazurin based fluorescence assay; type: functional; conditions: 168 h, time 7 day
[17] = tested on: Mycolicibacterium smegmatis; experiment: Antimycobacterial activity against Mycobacterium smegmatis mc2 155 assessed as reduction in bacterial cell growth by resazurin reduction method; type: functional
Salmonella typhimurium = experiment: Antibacterial activity against Salmonella typhimurium DT104 assessed as inhibition of bacterial growth incubated for 18 hrs by CLSI protocol based microbroth dilution method; type: functional, Salmonella enterica subsp. enterica serovar Typhimurium; conditions: Salmonella enterica

Sequence of Cytochrome P450 2C9 (P11712 whole entry): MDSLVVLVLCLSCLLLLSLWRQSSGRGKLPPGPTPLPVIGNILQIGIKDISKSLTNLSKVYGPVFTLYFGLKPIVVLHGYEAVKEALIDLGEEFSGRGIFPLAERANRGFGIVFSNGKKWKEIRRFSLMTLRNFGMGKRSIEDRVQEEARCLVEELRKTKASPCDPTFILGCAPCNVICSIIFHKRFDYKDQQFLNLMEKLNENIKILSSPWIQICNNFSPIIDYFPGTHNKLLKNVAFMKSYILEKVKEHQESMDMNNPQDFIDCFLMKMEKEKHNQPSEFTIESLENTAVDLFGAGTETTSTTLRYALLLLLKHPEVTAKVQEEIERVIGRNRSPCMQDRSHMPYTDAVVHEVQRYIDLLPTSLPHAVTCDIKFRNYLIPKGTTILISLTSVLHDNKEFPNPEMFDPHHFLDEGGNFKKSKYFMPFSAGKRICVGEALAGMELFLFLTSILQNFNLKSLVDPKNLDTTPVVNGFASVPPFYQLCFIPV

Compound `CN[C@@H]1[C@H](O)[C@H](NC)[C@H]2O[C@@]3(O)[C@H](NC(=O)Cc4ccc(F)cn4)C[C@@H](C)C[C@H]3O[C@@H]2[C@H]1O` has an MIC50 [1] of 0.8 µg/mL (≈ 1.71 µM).

Work on `O=C(OCc1ccccc1)c1ccsc1NC(=O)C1CCCN1` (configuration not stated) yielded an MIC50 [2] of 1.3 µg/mL (≈ 3.93 µM).

With `c1cc2cc(-c3ccc(-c4cc5ccc(C6=NCCN6)cc5[nH]4)cc3)[nH]c2cc1C1=NCCN1` the MIC50 [3] was 0.04 µg/mL (≈ 0.09 µM).

With `OC1CCN(C2CCN(CC34CC5CC(CC(C5)C3)C4)CC2)CC1` the MIC90 [4] was greater than 10 µg/mL.

With `CC(=O)N1/C(=C/c2ccc(-c3ccccc3)cc2)C(=O)c2ccccc21` the MIC99 [5] was 0.38 µg/mL (≈ 1.12 µM).

`CC1(C)CCC(NC(=O)c2cc3c(Cl)cc(Cl)cc3[nH]2)CC1` was tested, and the MIC50 [6] was 5 ng/mL (≈ 0.0147 µM).

`CCOC(=O)NC(=O)c1cc(F)sc1NC(=O)c1nc2ccccc2s1` gave an IC50 (Cytochrome P450 2C9) of 150 nM.

`CCNC(=O)Nc1nc2cc(-c3cnc(C(C)(C)O)nc3)c(F)c([C@H]3CCCO3)c2[nH]1` showed an MIC50 [7] of 0.03 µg/mL (≈ 0.07 µM).

Work on `C[C@]1(COc2ccc(N3CCC(Oc4ccc(OC(F)(F)F)cc4)CC3)cc2)Cn2cc([N+](=O)[O-])nc2O1` [DELAMANID] yielded an MIC50 [8] of 0.006 µg/mL (≈ 0.0112 µM).

Compound `OC1CCN(C2CCN(Cc3ccccc3)CC2)CC1` has an MIC90 [4] greater than 10 µg/mL.

Work on `OCC1CCCN1CC1CCN(CC23CC4CC(CC(C4)C2)C3)CC1` (configuration not stated) yielded an MIC90 [4] greater than 10 µg/mL.

Compound `C(=C\c1cc2ccc(C3=NCCN3)cc2[nH]1)/c1cc2ccc(C3=NCCN3)cc2[nH]1` has an MIC50 [3] of 0.03 µg/mL (≈ 0.076 µM).

For `c1cc2cc(-c3ccc4cc(C5=NCCN5)[nH]c4c3)[nH]c2cc1C1=NCCN1`, the MIC50 [3] was 0.08 µg/mL (≈ 0.217 µM).

For `CC(=O)N1/C(=C/c2ccc(Oc3ccc(Cl)cc3)cc2)C(=O)c2ccccc21`, the MIC99 [5] was 0.18 µg/mL (≈ 0.462 µM).

In the case of `CCN(CC)CCOc1c(C(=O)OC)c2c3c(oc2c2ccccc12)C(=O)c1ccccc1C3=O`, the MIC50 [9] is reported as 0.19 µg/mL (≈ 0.403 µM).

For `OC1CCN(CC2CCN(Cc3ccccc3)CC2)CC1`, the MIC90 [4] was 6.2 µg/mL (≈ 21.5 µM).

With `CC(=O)N1/C(=C/c2cccc(-c3ccccc3)c2)C(=O)c2ccccc21` the MIC99 [5] was 0.69 µg/mL (≈ 2.03 µM).

`CC(=O)N1/C(=C/c2ccc(Oc3ccc(Cl)cc3)cc2)C(=O)c2cc(Cl)ccc21` gave an MIC99 [5] of 0.13 µg/mL (≈ 0.306 µM).

Work on `COC(=O)c1ccsc1NC(=O)C1CCCN1` (configuration not stated) yielded an MIC50 [2] of 0.8 µg/mL (≈ 3.15 µM).

`CCOC(=O)NC(=O)c1ccsc1NC(=O)c1nc2cccnc2s1` showed an IC50 (Cytochrome P450 2C9) of 130 nM.

In the case of `O=[N+]([O-])c1cn2c(n1)OC[C@@H](OCc1ccc(-c3ccc(C(F)(F)F)cc3)nc1)C2`, the MIC50 [8] is reported as less than 0.015 µg/mL.

In the case of `CC(=O)NC[C@H]1CN(c2ccc(N3CCOCC3)c(F)c2)C(=O)O1` [LINEZOLID], the MIC50 [10] is reported as 0.3 µg/mL (≈ 0.889 µM) and the MIC50 (Staphylococcus aureus) is reported as 0.3 µg/mL.

With `CN1CCN(c2ccc(N3C[C@H](CO)OC3=O)cc2F)C=N1` [DELPAZOLID] the MIC50 [11] was 0.5 µg/mL (≈ 1.62 µM) and the MIC50 (Staphylococcus aureus) was 0.5 µg/mL.

With `CCCCc1ccc(NC(=O)C2=CCN(C)[C@@H]([C@H](O[C@@H]3O[C@H](CN)[C@@H](O)[C@H]3O)[C@H]3O[C@@H](n4ccc(=O)[nH]c4=O)[C@H](O)[C@@H]3O)C(=O)N2C)cc1` the MIC50 [12] was 3.13 µg/mL (≈ 4.54 µM).

In the case of `COc1cc([C@](O)(CCN(C)C)[C@@H](c2cc3cc(Br)ccc3nc2OC)c2cccc(OC)c2F)cc(OC)n1` [TBAJ-587], the “log(activity)” value [13] is reported as 4.5, the MIC50 [14] is reported as less than 0.02 µg/mL and the MIC50 (Mycobacterium avium) is reported as 0.006 µg/mL (≈ 0.00976 µM).

`CC(=O)NC[C@H]1CN(c2ccc(N3CCSCC3)c(F)c2)C(=O)O1` [SUTEZOLID] showed an MIC50 [10] of 0.03 µg/mL (≈ 0.0849 µM) and an MIC50 (Staphylococcus aureus) of 0.03 µg/mL.

With `CN[C@@H]1[C@H](O)[C@H](NC)[C@H]2O[C@@]3(O)[C@H](NC(=O)Cc4ccc(Cl)cn4)C[C@@H](C)C[C@H]3O[C@@H]2[C@H]1O` the MIC50 [1] was 1.6 µg/mL (≈ 3.3 µM).

Work on `COc1cc([C@](O)(CCN(C)C)[C@@H](c2cc3cc(Br)ccc3nc2OC)c2cc(OC)nc(OC)c2OC)cc(OC)n1` [TBAJ-876] yielded an MIC50 (Mycobacterium avium) of 5 µg/mL (≈ 7.6 µM).

Work on `O=C(Oc1ccccc1)c1ccsc1NC(=O)C1CCCN1` (configuration not stated) yielded an MIC50 [2] of 2.4 µg/mL (≈ 7.59 µM).

With `COc1nc2ccc(Br)cc2cc1[C@@H](c1ccccc1)[C@@](O)(CCN(C)C)c1cccc2ccccc12` [BEDAQUILINE] the MIC50 [15] was 0.01 µg/mL (≈ 0.018 µM) and the MIC50 (Mycobacterium avium) was 0.01 µg/mL (≈ 0.018 µM).

`OC1CCN(CC2CCN(CC34CC5CC(CC(C5)C3)C4)CC2)CC1` gave an MIC90 [4] of 4 µg/mL (≈ 11.5 µM).

With `CCOC(=O)NC(=O)c1ccsc1NC(=O)c1ccn2cnnc2c1` the IC50 (Cytochrome P450 2C9) was greater than 10000 nM.

`CC(=O)N1/C(=C/c2ccc(Br)cc2)C(=O)c2ccccc21` was tested, and the MIC99 [5] was 0.42 µg/mL (≈ 1.23 µM).

For `O=C(Nc1nc(-c2ccccn2)cs1)c1ccc(Cl)s1`, the MIC50 [16] was 0.25 µg/mL (≈ 0.777 µM).

For `c1ccc(CC2CCN(CC3CCN(CC45CC6CC(CC(C6)C4)C5)CC3)CC2)cc1`, the MIC90 [4] was 7 µg/mL (≈ 16.6 µM).

In the case of `O=C1CCc2c(OC[C@]3(O)CCN(c4c(F)cc(Cl)cc4F)C[C@H]3O)ccc(F)c2N1` [QUABODEPISTAT], the MIC50 [1] is reported as 0.00024 µg/mL (≈ 0.000525 µM).

`O=[N+]([O-])c1cn2c(n1)OC[C@@H](OCc1ccc(OC(F)(F)F)cc1)C2` [PRETOMANID] showed an MIC50 [8] of 0.015 µg/mL (≈ 0.0418 µM).

For `CC(C)=CCC/C(C)=C/CNCCNC1C2CC3CC(C2)CC1C3` (configuration not stated) [SQ109], the MIC50 [1] was 0.12 µg/mL (≈ 0.363 µM).

For `OC1CCN(CC2CCC(CNCc3ccccc3)CC2)CC1` (configuration not stated), the MIC90 [4] was greater than 12 µg/mL.

With `CCOc1cc([C@](O)(CCN(C)C)[C@@H](c2cc3cc(Br)ccc3nc2OC)c2cccc(OC)c2F)cc(OC)n1` the “log(activity)” value [13] was 1.5.

With `COc1ncnc(Cn2cc(C(=O)NCCO)c3ncc(C)cc32)c1C` [TBA-7371] the MIC50 [12] was 0.28 µg/mL (≈ 0.788 µM).

In the case of `CCCCCCCCCC(=O)C[C@@H]1[C@H](OC)C([C@@H](O[C@H]2OC(C(=O)N[C@H]3CCC[C@@H](C)NC3=O)=C[C@H](O)[C@@H]2O)C(N)=O)O[C@H]1n1ccc(=O)[nH]c1=O` (some centres not stated), the MIC50 [12] is reported as 1 µg/mL (≈ 1.36 µM).

In the case of `CCc1nc2ccc(Cl)cn2c1C(=O)NCc1ccc(N2CCC(c3ccc(OC(F)(F)F)cc3)CC2)cc1` [TELACEBEC], the MIC90 [17] is reported as 2.4 ng/mL (≈ 0.00431 µM).

`CC(=O)N1/C(=C/c2ccc(-c3ccsc3)cc2)C(=O)c2ccccc21` was tested, and the MIC99 [5] was 0.16 µg/mL (≈ 0.463 µM).

With `COc1c(N2CC3(CC3)[C@@](C)(N)C2)c(F)cc2c(=O)c(C(=O)O)cn(C3C[C@H]3F)c12` (some centres not stated) the MIC90 (Salmonella typhimurium) was 0.06 µg/mL (≈ 0.143 µM).

In the case of `c1cc2cc(-c3ccc4cc(-c5ccc6oc(C7=NCCN7)cc6c5)[nH]c4c3)[nH]c2cc1C1=NCCN1`, the MIC50 [3] is reported as 0.02 µg/mL (≈ 0.0413 µM).
